Assay [1] deals with IRF pathway in THP1-Dual cells (STING agonists). The experiment in a line: STING THP1 reporter assay, IRF pathway (Lucia luciferase). The format is cell-based. As to conditions: 10% human plasma, luciferase readout, 100% = 100 μM cGAMP, read-out: THP1 Reporter Assays EC50 (μM) IRF3. The text has this:
(§1) THP1-Dual™ cells were derived from the human THP-1 monocyte cell line by stable integration of two inducible reporter constructs. To this end, THP1-Dual™ cells allow the simultaneous study of the NF-κB pathway, by monitoring the activity of SEAP, and the IRF pathway by assessing the activity of a secreted luciferase (Lucia). Both reporter proteins are readily measurable in the cell culture supernatant when using QUANTI-Blue™, a SEAP detection reagent, and QUANTI-Luc™, a luciferase detection reagent.
(§2) THP1-Dual™ cells induce the activation of NF-κB in response to STING agonists. They also trigger the IRF pathway upon stimulation with STING agonists, such as cGAMP. Here, the THP-1-Dual cells were used to assess STING binders for function on the cellular level.
(§3) Serial dilutions of compounds in DMSO were added to low volume 384 well plates at 100 nl/well using an ECHO acoustic dispenser (Labcyte, model 550) to achieve final starting concentration of 100 μM in cell suspension. THP-1 Dual™ STING reporter cells (Invivogen, Dual cells cat #THPD-nfis) were added to the plates with compounds at 15,000 cells in 10 μL per well in RPMI media (Gibco, cat #11875) containing 10% human plasma in a low volume 384-well black wall clear bottom tissue culture plate (Corning, cat #3542) for SEAP assay and low volume solid white plate (Corning, cat #3826) for luciferase assay. One column of the plate was reserved for treatment with cGAMP at 100 μM for 100% activation calculation and one column for no treatment (DMSO only) for baseline activation. Plates were then incubated in 37° C. incubator at 5% CO2 for 20 hours.
(§4) In the SEAP assay, 5 μl of 2× QuantiBlue (Invivogen, cat #Rep-qb2) is added to 384 well black plates seeded with THP1 cells and incubated at 37° C. for 2 hours. Plates were read on the Envision (Perkin Elmer) at 620 nm wavelength (OD620). In the luciferase assay, 5 μl of Quantiluc (Invivogen, Rep-qlc2) is added to white 384 well plates seeded with THP1 cells and read at 5 minutes on the Envision (Perkin Elmer) using a luminescence protocol (RLU). For both cell lines, 100% activation was determined by value (RLU) of THP-1 Dual STING cells stimulated with 100 μM cGAMP (Invivogen, cat #TLRL-NACGA23-5).

In assay [2] the test system is NF-κB pathway in THP1-Dual cells (STING agonists). The experiment in a line: STING THP1 reporter assay, NF-κB pathway (SEAP). In kind it is cell-based. To be noted: 10% human plasma, SEAP readout, 100% = 100 μM cGAMP, read-out: THP1 Reporter Assays EC50 (μM) NFkB.
Excerpt: as §1, §2, §3, §4
(A reporter such as luciferase makes a cellular process visible.)

For assay [3], the target named is T1, STING WT: His-TVMV-S-hSTING(155-341)-H232R (Homo sapiens, UniProt Q86WV6, H232R).
T1 construct: STING WT: His-TVMV-S-hSTING(155-341)-H232R
T1 sequence (Q86WV6 with tags, fused parts or gaps H232R): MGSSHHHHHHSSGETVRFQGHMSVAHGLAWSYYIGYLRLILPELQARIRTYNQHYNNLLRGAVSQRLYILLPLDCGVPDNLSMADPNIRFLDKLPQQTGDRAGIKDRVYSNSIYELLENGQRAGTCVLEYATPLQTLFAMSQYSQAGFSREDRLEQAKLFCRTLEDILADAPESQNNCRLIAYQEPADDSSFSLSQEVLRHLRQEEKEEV
As to the kind of experiment: STING HTRF binding assay, STING WT. To be noted: 20 nM His-tagged STING cytoplasmic domain WT, 200 nM fluorescein-labeled cGAMP analog probe, one hour; read-out: HTRF Binding Assays IC50 (μM) WT. The protocol:
(§5) A time resolved FRET-based competition binding assay was used to assess test article binding to STING WT and STING AQ. His-tagged STING cytoplasmic domain (WT or AQ) at a concentration of 20 nM was incubated with 2.5 nM Tb-labeled anti-His antibody, test compound, and fluorescein-labeled cGAMP analog probe (BioLog cat. no. C195) at a concentration of 200 nM (STING WT) or 40 nM (STING AQ) in PBS containing 0.005% Tween-20 and 0.1% BSA for one hour. Fluorescence at 495 nm and 520 nm was measured using an EnVision microplate reader to quantify FRET between Tb-labeled anti-His antibody and fluorescein-labeled probe. Background was defined as the signal obtained in the absence of STING protein, and background subtracted FRET ratios were normalized to the maximum signal obtained in the absence of test compound. These values were converted to a percent inhibition. Percent inhibition was determined for test compounds at 11 concentrations. The IC50, defined as the concentration of competing test compound needed to reduce specific binding of the probe by 50%, was calculated using the 4 parameter logistic equation to fit the data
For orientation: In TR-FRET formats the signal depends on donor and acceptor labels being close together.

In assay [4] the target is T2, STING AQ: His-TVMV-S-hSTING(155-341)-G230A-R293Q (Homo sapiens, UniProt Q86WV6, G230A/H232R/R293Q).
T2 construct: STING AQ: His-TVMV-S-hSTING(155-341)-G230A-R293Q
T2 sequence (Q86WV6 with tags, fused parts or gaps G230A/H232R/R293Q): as the sequence (Q86WV6 with tags, fused parts or gaps H232R) above, with G99A, R162Q counted along it
The experiment in a line: STING HTRF binding assay, STING AQ. To be noted: 20 nM His-tagged STING cytoplasmic domain AQ, 40 nM fluorescein-labeled cGAMP analog probe, one hour; read-out: HTRF Binding Assays IC50 (μM) AQ. The protocol: as §5

Read-outs that look alike come from different tables or passages of the source.

Our source for the EC50 and IC50 values is patent publication US11945834B2, “Cyclic dinucleotides as anticancer agents” (BRISTOL-MYERS SQUIBB COMPANY, priority 2018, dated 2024).

As usually defined, the EC50 is the concentration needed to bring the measured effect to its halfway point. As usually defined, the IC50 is the concentration that gives 50% inhibition.

Regarding `NC(=O)c1cc([C@@H]2O[C@@H]3COP(=O)(S)O[C@H]4[C@@H](F)[C@H](n5cnc6c(N)ncnc65)O[C@@H]4COP(=O)(S)O[C@@H]2[C@@H]3O)ccn1` (single isomer, unassigned) [Example 1-1], the EC50 in assay [1] (Homo sapiens, THP1-Dual, 20 h) came to 4.94 µM; in assay [2] (Homo sapiens, THP1-Dual, 20 h), 8.05 µM. Moreover, the IC50 in assay [3] worked out at 0.09 µM; in assay [4] it was 0.01 µM.

Take `NC(=O)c1cc([C@@H]2O[C@@H]3COP(=O)(S)O[C@H]4[C@@H](F)[C@H](n5cnc6c(N)ncnc65)O[C@@H]4COP(=O)(S)O[C@@H]2[C@@H]3F)ccn1` (single isomer, unassigned) [Example 4-1]: the EC50 came out at 19 µM in assay [1] (20 hours) and 57.1 µM in assay [2] (20 hours). The IC50 worked out at 0.66 µM in assay [3] and 0.05 µM in assay [4].

For the compound `C=C1[C@H]2OP(=O)(S)OC[C@H]3O[C@@H](n4cnc5c(N)ncnc54)[C@H](F)[C@@H]3OP(=O)(S)OC[C@H]1O[C@H]2c1ccnc(C(N)=O)c1` (single isomer, unassigned) [Example 3-1], the EC50 came out at 9.23 µM in assay [1] (20 hours) and 22.6 µM in assay [2] (20 hours). For the same compound, the figures for the IC50 in assay [3] and in assay [4] were 0.78 µM and 0.04 µM, respectively.

On to `CNC(=O)c1cc([C@@H]2O[C@@H]3COP(=O)(S)O[C@H]4[C@@H](F)[C@H](n5cnc6c(N)ncnc65)O[C@@H]4COP(=O)(S)O[C@@H]2[C@@H]3O)ccn1` (single isomer, unassigned) [Example 2-4], for which the EC50 in assay [1] (20 hours) was more than 100 µM. Also, the IC50 in assay [3] was 92.3 µM; in assay [4], 4.85 µM.

Take `NC(=O)c1cc([C@@H]2O[C@@H]3COP(=O)(S)O[C@H]4[C@@H](F)[C@H](n5cnc6c5ncn5ccnc65)O[C@@H]4COP(=O)(S)O[C@@H]2[C@@H]3O)ccn1` (single isomer, unassigned) [Example 5-2]: the EC50 in assay [1] (Homo sapiens, THP1-Dual, 20 h) amounted to 0.14 µM; in assay [2] (Homo sapiens, THP1-Dual, 20 h), 0.38 µM. Also, the results for the IC50 in assay [3] and in assay [4] were 93.4 µM and 14 µM, respectively.

Consider `C=C1[C@H]2OP(=O)(S)OC[C@H]3O[C@@H](n4cnc5c(N)ncnc54)[C@H](F)[C@@H]3OP(=O)(S)OC[C@H]1O[C@H]2c1ccnc(C(N)=O)c1` (single isomer, unassigned) [Example 3-3], for which the EC50 in assay [1] (20 hours) and in assay [2] (20 hours) was more than 100 µM throughout. In addition, the values for the IC50 in assay [3] and in assay [4] were 14.4 µM and 1.03 µM, respectively.

As to `CNC(=O)c1cc([C@@H]2O[C@@H]3COP(=O)(S)O[C@H]4[C@@H](F)[C@H](n5cnc6c(N)ncnc65)O[C@@H]4COP(=O)(S)O[C@@H]2[C@@H]3O)ccn1` (single isomer, unassigned) [Example 2-1], the EC50 in assay [1] (Homo sapiens, THP1-Dual, 20 h) is more than 100 µM; in assay [2] (Homo sapiens, THP1-Dual, 20 h), more than 100 µM. The IC50 amounted to 10.3 µM in assay [3] and 0.6 µM in assay [4].

Turning to `NC(=O)c1cc([C@@H]2O[C@@H]3COP(=O)(S)O[C@H]4[C@@H](F)[C@H](n5cnc6c(N)ncnc65)O[C@@H]4COP(=O)(S)O[C@@H]2[C@@H]3F)ccn1` (single isomer, unassigned) [Example 4-2], the values for the EC50 in assay [1] (20 hours) and in assay [2] (20 hours) were 0.37 µM and 1.32 µM, respectively. Also, the IC50 in assay [3] amounted to 0.09 µM; in assay [4] it was 0.03 µM.

As to `C=C1[C@H]2OP(=O)(S)OC[C@H]3O[C@@H](n4cnc5c(N)ncnc54)[C@H](F)[C@@H]3OP(=O)(S)OC[C@H]1O[C@H]2c1ccnc(C(N)=O)c1` (single isomer, unassigned) [Example 3-4], the EC50 came out at 7.4 µM in assay [1] (20 hours) and 19.3 µM in assay [2] (20 hours). Moreover, the results for the IC50 in assay [3] and in assay [4] were 1.21 µM and 0.09 µM, respectively.

In the case of `C=C1[C@H]2OP(=O)(S)OC[C@H]3O[C@@H](n4cnc5c(N)ncnc54)[C@H](F)[C@@H]3OP(=O)(S)OC[C@H]1O[C@H]2c1ccnc(C(N)=O)c1` (single isomer, unassigned) [Example 3-2], the EC50 in assay [1] (20 hours) and in assay [2] (20 hours) was more than 100 µM throughout. The IC50 in assay [3] is 40.9 µM; in assay [4], 1.64 µM.
